According to PMC8699473, “An Easily Expandable Multi-Drug LC-MS Assay for the Simultaneous Quantification of 57 Oral Antitumor Drugs in Human Plasma” (Cancers, 2021):

Experiment: Long-term stability in spiked pooled human plasma

Compound | Long-term stability, 1 month, -20°C Accuracy [%] (validation standard 2xLLOV) | Long-term stability, 1 month, -80°C Accuracy [%] (validation standard 2xLLOV) | Long-term stability, 2 month, -20°C Accuracy [%] (validation standard 2xLLOV) | Long-term stability, 2 month, -80°C Accuracy [%] (validation standard 2xLLOV) | Long-term stability, 3 month, -20°C Accuracy [%] (validation standard 2xLLOV) | Long-term stability, 3 month, -80°C Accuracy [%] (validation standard 2xLLOV) | Long-term stability, 6 weeks, 4°C, without daylight Accuracy [%] (validation standard 2xLLOV) | Long-term stability, 1 month, -20°C Accuracy [%] (validation standard LLOV) | Long-term stability, 1 month, -80°C Accuracy [%] (validation standard LLOV) | Long-term stability, 2 month, -20°C Accuracy [%] (validation standard LLOV) | Long-term stability, 2 month, -80°C Accuracy [%] (validation standard LLOV) | Long-term stability, 3 month, -20°C Accuracy [%] (validation standard LLOV) | Long-term stability, 3 month, -80°C Accuracy [%] (validation standard LLOV) | Long-term stability, 6 weeks, 4°C, without daylight Accuracy [%] (validation standard LLOV) | Long-term stability, 1 month, -20°C Accuracy [%] (validation standard MOV) | Long-term stability, 1 month, -80°C Accuracy [%] (validation standard MOV) | Long-term stability, 2 month, -20°C Accuracy [%] (validation standard MOV) | Long-term stability, 2 month, -80°C Accuracy [%] (validation standard MOV) | Long-term stability, 3 month, -20°C Accuracy [%] (validation standard MOV) | Long-term stability, 3 month, -80°C Accuracy [%] (validation standard MOV) | other results
CCCS(=O)(=O)Nc1ccc(F)c(C(=O)c2c[nH]c3ncc(-c4ccc(Cl)cc4)cc23)c1F [Vemurafenib] | 102.1% | 105.7% | 110.6% | 108.1% | 97.3% | 105.9% | 86.3% | 105.8% | 101.6% | 104.5% | 98.7% | 106.2% | 114.9% | 85.9% | 104.9% | 106.7% | 116.1% | 119.1% | 92.9% | 96.8% | Long-term stability, 6 weeks, 4°C, without daylight Accuracy [%] (validation standard MOV): 97.8%; Long-term stability, 1 month, -20°C Accuracy [%] (validation standard ULOV): 104.7%; Long-term stability, 1 month, -80°C Accuracy [%] (validation standard ULOV): 101.7%; Long-term stability, 2 month, -20°C Accuracy [%] (validation standard ULOV): 119.0%; Long-term stability, 2 month, -80°C Accuracy [%] (validation standard ULOV): 112.7%; Long-term stability, 3 month, -20°C Accuracy [%] (validation standard ULOV): 89.5%; Long-term stability, 3 month, -80°C Accuracy [%] (validation standard ULOV): 100.8%; Long-term stability, 6 weeks, 4°C, without daylight Accuracy [%] (validation standard ULOV): 94.4%
CCC1=C[C@@H]2CN(C1)Cc1c([nH]c3ccccc13)[C@@](C(=O)OC)(c1cc3c(cc1OC)N(C)[C@H]1[C@@](O)(C(=O)OC)[C@H](OC(C)=O)[C@]4(CC)C=CCN5CC[C@]31[C@@H]54)C2 [Vinorelbine] | 97.3% | 110.2% | 108.5% | 94.1% | 98.4% | 97.8% | 75.3% | 118.3% | 110.0% | 98.1% | 109.4% | 101.7% | 118.7% | 85.9% | 90.2% | 88.9% | 89.2% | 92.4% | 98.2% | 93.5% | Long-term stability, 6 weeks, 4°C, without daylight Accuracy [%] (validation standard MOV): 73.1%; Long-term stability, 1 month, -20°C Accuracy [%] (validation standard ULOV): 90.4%; Long-term stability, 1 month, -80°C Accuracy [%] (validation standard ULOV): 92.0%; Long-term stability, 2 month, -20°C Accuracy [%] (validation standard ULOV): 87.6%; Long-term stability, 2 month, -80°C Accuracy [%] (validation standard ULOV): 99.6%; Long-term stability, 3 month, -20°C Accuracy [%] (validation standard ULOV): 92.2%; Long-term stability, 3 month, -80°C Accuracy [%] (validation standard ULOV): 98.1%; Long-term stability, 6 weeks, 4°C, without daylight Accuracy [%] (validation standard ULOV): 56.9%
CS(=O)(=O)c1ccc(C(=O)Nc2ccc(Cl)c(-c3ccccn3)c2)c(Cl)c1 [Vismodegib] | 105.4% | 99.5% | 106.5% | 104.3% | 100.1% | 99.6% | 107.5% | 92.5% | 88.6% | 94.1% | 96.9% | 84.3% | 84.4% | 96.6% | 97.8% | 97.9% | 103.0% | 103.7% | 101.3% | 100.9% | Long-term stability, 6 weeks, 4°C, without daylight Accuracy [%] (validation standard MOV): 109.8%; Long-term stability, 1 month, -20°C Accuracy [%] (validation standard ULOV): 90.5%; Long-term stability, 1 month, -80°C Accuracy [%] (validation standard ULOV): 87.8%; Long-term stability, 2 month, -20°C Accuracy [%] (validation standard ULOV): 94.5%; Long-term stability, 2 month, -80°C Accuracy [%] (validation standard ULOV): 95.1%; Long-term stability, 3 month, -20°C Accuracy [%] (validation standard ULOV): 94.9%; Long-term stability, 3 month, -80°C Accuracy [%] (validation standard ULOV): 93.4%; Long-term stability, 6 weeks, 4°C, without daylight Accuracy [%] (validation standard ULOV): 96.5%
